pIC50: −log10 of the molar value.
Tests used:
[1] = target: T1, Human immunodeficiency virus type 1 integrase (Human immunodeficiency virus 1, UniProt Q7ZJM1); assay: Inhibitory activity against HIV integrase in the strand transfer step
[2] = target: T1, Human immunodeficiency virus type 1 integrase; assay: Inhibitory activity against HIV integrase in the 3' processing step

T1 sequence (Q7ZJM1 whole entry): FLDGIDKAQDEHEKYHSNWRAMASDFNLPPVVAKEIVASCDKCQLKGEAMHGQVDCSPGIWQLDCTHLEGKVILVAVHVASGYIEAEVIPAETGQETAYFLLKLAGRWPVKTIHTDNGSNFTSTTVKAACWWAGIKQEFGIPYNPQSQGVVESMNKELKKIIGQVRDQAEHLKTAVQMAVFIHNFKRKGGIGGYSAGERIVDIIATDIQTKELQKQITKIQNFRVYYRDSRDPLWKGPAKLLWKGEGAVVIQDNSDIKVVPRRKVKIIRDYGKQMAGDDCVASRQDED

| pIC50 [1] | pIC50 [2] | Structure (SMILES) |
| --- | --- | --- |
| 4.17 | – | Nc1ncnc2cc3c(cc12)ncn3C1COC(COP(=O)(O)O)C1 (stereo not given) |
| 3.26 | 3.12 | Nc1ncnc2cc3c(cc12)ncn3C1CCC(COP(=O)(O)O)O1 (stereo not given) |
| 4.28 | 4.12 | Nc1ncnc2c1ccc1ncn(C3COC(COP(=O)(O)O)C3)c12 (stereo not given) |

— ChEMBL document CHEMBL1130893, “Inhibition of HIV integrase by novel nucleotides bearing tricyclic bases” (Bioorg Med Chem Lett, 1998)
